Measurements: patent publication US20120201868A1, “TREATMENT AND PREVENTION OF HIV INFECTION” (priority 2009, published 2012)
Several values for one entry are separate records, joined by “and”; a condition that tells them apart may be missing. Equal entries are not always repeated. Where two headings read alike, the source gives them in different places.

Legend:
[1] = in vivo, po; cited from earlier work
[2] = Plasma kinetics after single subcutaneous injection of brecanavir solution in rats; type: in vivo, Sprague-Dawley rats; settings: for bioavailability: s.c. solution, read-out: average absolute bioavailability (F)
Method: FIG. 2: Individual and mean plasma concentrations of brecanavir following single subcutaneous injection of a brecanavir solution to rats at 16 (Δ) and 56 mg/kg (∘).
Sprague-Dawley rats (Crl:CD® (SD)IGS) of 200-300 g were injected once subcutaneously with an aqueous solution of brecanavir at 16 (n=4) and at 56 (n=4) mg/kg. The solution was prepared one day before dose administration; brecanavir was formulated in an aqueous 30% (w/v) DMA/50% (w/v) PEG400 solution at 35 mg/ml. The ingredients of the solution were: brecanavir, DMA 30% (w/v), PEG 400 50% (w/v) and pyrogenic free water. The content of brecanavir in the formulation was checked using LC-UV. The concentration of brecanavir in the formulation was 35 mg/ml.
Blood samples (0.3 ml on EDTA) were collected from the rats via the tail vein at 1, 2, 4, 7 and 24 h and further at 3, 4, 8, 14, 29, 42 and 56 days after dosing. Plasma samples were analyzed for brecanavir with a qualified research method on LC/MS/MS. Plasma concentrations were plotted as a function of time after dosing (FIG. 2). Pharmacokinetic parameters were calculated using WinNonlin software. Subcutaneous injection of an aqueous solution of brecanavir in rats produced an extended release pharmacokinetic profile with duration of at least 8 weeks (FIG. 2).

[3] = tested on: wild type HIV as well as mutated variants; settings: in words; cited from earlier work
[4] = Plasma kinetics after intravenous injection of brecanavir solution in rats; type: in vivo; settings: for clearance / AUC(0-t): rat, plasma, iv
Method: FIG. 1: Individual plasma concentration (ng/ml) versus time profiles following intravenous dosing of a solution of brecanavir in rats at 2 mg/kg.
Brecanavir was injected intraveneously as a 1 mg/ml solution (PEG400/saline 70:30) in rats (n=3) to determine the plasma kinetics of brecanavir in these animals. Plasma samples were collected from each of the rats at selected time points after administration; samples were analyzed for brecanavir concentrations with LC/MS. (See FIG. 1.)

[5] = individual rats, single s.c. solution, 16 mg/kg
[6] = individual rats, single s.c. solution, 56 mg/kg
[7] = individual rats, i.v. solution, 2 mg/kg
[8] = mean of n=3 rats, i.v. solution, 2 mg/kg
[9] = 2 mg/kg, mean of n=3 rats, i.v. solution

Question: Which results are given for `Cc1nc(COc2ccc(C[C@H](NC(=O)O[C@H]3CO[C@H]4OCC[C@H]43)[C@H](O)CN(CC(C)C)S(=O)(=O)c3ccc4c(c3)OCO4)cc2)cs1` [brecanavir, [(3R,3aS,6aR)-2,3,3a,4,5,6a-hexahydro-furo[5,4-b]furan-3-yl] N-[(2S,3R)-4-(1,3-benzodioxol-5-ylsulfonyl-(2-methylpropyl)-amino)-3-hydroxy-1-[4-[(2-methyl-1,3-thiazol-4-yl)methoxy]phenyl]butan-2-yl]-carbamate]?
Answer: brecanavir exposures [1]: insufficient to inhibit PI-resistant virus; AUC(0-t) ([2]; Sprague-Dawley (Crl:CD(SD)IGS), rat, plasma, sc, 16 mg/kg, individual rats, single s.c. solution, 16 mg/kg): 6500 ng·h/mL; AUC(0-t) ([2]; Sprague-Dawley (Crl:CD(SD)IGS), rat, plasma, sc, 16 mg/kg, mean of n=4 rats, single s.c. solution, 16 mg/kg): 8720 ng·h/mL; Cmax ([2]; Sprague-Dawley (Crl:CD(SD)IGS), rat, plasma, sc, 16 mg/kg, mean of n=4 rats, single s.c. solution, 16 mg/kg, read-out: Cmax): 369 ng/mL; AUC(0-t) ([2]; Sprague-Dawley (Crl:CD(SD)IGS), rat, plasma, sc, 56 mg/kg, individual rats, single s.c. solution, 56 mg/kg): 29900 ng·h/mL; AUC(0-t) ([2]; Sprague-Dawley (Crl:CD(SD)IGS), rat, plasma, sc, 56 mg/kg, mean of n=4 rats, single s.c. solution, 56 mg/kg): 21700 ng·h/mL; Cmax ([2]; Sprague-Dawley (Crl:CD(SD)IGS), rat, plasma, sc, 56 mg/kg, mean of n=4 rats, single s.c. solution, 56 mg/kg, read-out: Cmax): 322 ng/mL; bioavailability ([2]; Sprague-Dawley (Crl:CD(SD)IGS), rat, plasma, sc, rats, 16 mg/kg): 91%; bioavailability ([2]; Sprague-Dawley (Crl:CD(SD)IGS), rat, plasma, sc, rats, 56 mg/kg): 66%; Cmax ([2]; individual rats, single s.c. solution (30% DMA/50% PEG400, 35 mg/ml), 16 mg/kg): 273 ng/mL and 289 ng/mL and 591 ng/mL and 234 ng/mL; AUClast [2, 5]: 9630 ng·h/mL and 9291 ng·h/mL and 9448 ng·h/mL; t1/2λz [2, 5]: 10.9 days and 5.58 days and 22.3 days and 17 days; AUClast [2, 6]: 17602 ng·h/mL and 24284 ng·h/mL and 15221 ng·h/mL; Cmax [2, 6]: 360 ng/mL and 204 ng/mL and 417 ng/mL and 305 ng/mL; t1/2λz [2, 6]: 53 days and 16.2 days and 19.2 days and 44.67 days; t1/2λz ([2]; mean of n=4 rats, single s.c. solution, 16 mg/kg): 14 days; t1/2λz ([2]; mean of n=4 rats, single s.c. solution, 56 mg/kg): 33.2 days; duration of extended release pharmacokinetic profile ([2]; rats, s.c. aqueous solution): at least 8 weeks; absorption into the systemic circulation ([2]; rats, s.c. injection of a high dose solution, in words): very slow absorption; activity against wild type HIV and mutated variants [3]: pronounced activity; AUClast ([4]; individual rats, i.v. solution (PEG400/saline 70:30, 1 mg/ml), 2 mg/kg): 1066 ng·h/mL and 1149 ng·h/mL; Cl [4, 7]: 30 mL/min/kg and 28.3 mL/min/kg; Vc [4, 7]: 0.70 L/kg and 0.46 L/kg and 0.52 L/kg; t1/2β [4, 7]: 2.3 h and 1.5 h (2×); Vc [4, 8]: 0.56 L/kg; t1/2β [4, 8]: 1.8 h; clearance ([4]; 2 mg/kg, individual rats, i.v. solution): 23.3 mL/min/kg; AUC(0-t) ([4]; 2 mg/kg, individual rats, i.v. solution (PEG400/saline 70:30, 1 mg/ml), 2 mg/kg): 1370 ng·h/mL; AUC(0-t) [4, 9]: 1200 ng·h/mL; clearance [4, 9]: 28.3 mL/min/kg; distribution volume ([4]; rats, i.v. injection, in words): moderate to small distribution volume; plasma clearance ([4]; rats, i.v. injection, in words): moderate plasma clearance
